Data from patent publication US20050070500A1, “Method of modulating release of saccharides and uses thereof” (priority 2001, published 2005).
Read-outs that look alike come from different tables or passages of the source.

How the values were obtained:
[1] = subcutaneous; patient not affected by ACTH or Prednisone; several weeks of treatment; cited from earlier work
in vivo = details: male, beagle, dog
From the text: This study was undertaken to determine the safety of Products X and Y, and to determine the pharmacokinetic profiles of Products X, Y, and a commercially available oral glucosamine formulation (Glucosamine) following a single oral and intravenous administration to beagle dogs. The pharmacokinetic profiles were examined for indications of sustained or slow release of glucosamine by Products X and Y.
A total of nine (9) male Beagle dogs were used during this study. The animals were assigned to three treatment groups of 3 animals/group. Group 1 received low dose Products X, Y and Glucosamine by oral administration on Days 1, 8 and 15, respectively. Group 2 animals received high dose Products X and Y by oral administration on Days 1 and 8, respectively, and Group 3 animals received low dose Products X and Y by intravenous injection on Days 1 and 8, respectively. Low and high dose animals were administered nominal dose levels of 21.4 mg/kg and 214 mg/kg, respectively. These levels approximated 1× and 10× the standard daily oral glucosamine consumption (1500 mg) for an average human (70 kg standard body weight). The commercial glucosamine was assumed to contain 100% active ingredient.
The following parameters were recorded throughout the study: mortality, clinical signs, body weight and clinical pathology (hematology, coagulation and clinical chemistry). Serial blood samples were collected from all animals for pharmacokinetic profiling following each dosing.
Samples were collected via the jugular vein, at: 0 (pre-dose), 15, 30, 60, 120 minutes post-dose. A 5 minute post-dose sample was included for Group 3.

[2] = dogs, cited from earlier work
[3] = humans, cited from earlier work

SMILES | symptoms of Crohn's Disease [1] | time of peak serum glucosamine level post-dose (in vivo) | AUC (in vivo; po, 21.4 mg/kg) | concentration at 120 minutes (in vivo; po, 21.4 mg/kg) | ratio of glucosamine delivered into the serum (oral glucosamine = 100) (in vivo; po, 21.4 mg/kg) | group mean serum glucosamine level at 120 minutes post-dose (in vivo; po, 21.4 mg/kg, 120 minutes) | glucosamine found in urine ([2]; after 144 hours) | gastrointestinal absorption [2] | glucosamine found in urine ([3]; after 144 hours) | gastrointestinal absorption [3]
Cl.N[C@H]1C(O)O[C@H](CO)[C@@H](O)[C@@H]1O (stereo partly drawn) [D-glucosamine-HCl] | symptoms stopped | – | – | – | – | – | – | – | – | –
N[C@H]1C(O)O[C@H](CO)[C@@H](O)[C@@H]1O (stereo partly shown) [Glucosamine, glucosamine] | – | 60 min | 1.65 µg·h/mL | 0.533 ± 0.188 µg/mL | 100 | 533 ng/mL | about 10% | about 87% | ~11% | ~90%
